The results in this text go back to patent US7906618B2, “Peptide capable of binding to insulin-binding protein and adsorbent” (Kaneka Corporation, priority 2004, dated 2011).

Ends that are not written are not given here.

The assay deals with T1, Recombinant Human Insulin Receptor (28-956) (soluble insulin receptor, SIR) (Homo sapiens, UniProt P06213).
T1 construct: Recombinant Human Insulin Receptor (28-956); purchased GT/TECHNE Corp
Put plainly: BIAcore determination of peptide-SIR binding (peptide immobilized on sensor chip CM5, soluble insulin receptor as analyte). The conditions noted are these: sensor chip CM5, amine coupling, HBS-EP buffer, SIR 100 nM to 0.781 nM, flow 10 μl/min; for koff: read-out: Dissociation rate constant (peptide-SIR). How it is done:
The affinity for the soluble insulin receptor identified by SEQ ID NO:1 is compared by the method using BIAcore (BIAcore AB) (as described in Am. J. Physiol. 272 (1997) E1089-1098). Briefly, a solution of the soluble insulin receptor is brought into contact with the surface of the ready-made sensor chip with the peptide defined by SEQ ID NO:1 as immobilized thereon, and the interaction is measured.
The dissociation constant (KD) of the peptide P14 obtained in Example 3 was determined using BIAcore upgrade (Biacore AB) and the analysis software BIA evaluation version 3.0 (Biacore AB).
The ligand was immobilized on the sensor chip CM5 research grade (Biacore AB) by the amine coupling method. Thus, the peptide mentioned above was dissolved in 20 mM carbonate buffer (pH 8.5) (500 μg/ml), and 100 μl of the solution was passed through the flow cell at a flow rate of 5 μl/min. The amount of the peptide immobilized was 200 RU (resonance units).
Recombinant Human Insulin Receptor (28-956) (GT/TECHNE Corp.) was used as the analyte soluble insulin receptor (SIR). To 50 mg in a vial was added HBS-EP buffer (250 ml) for thorough dissolution ([…]), and the solution was 10-fold diluted to give a 100 nM solution. Eight concentration levels from 100 nM to 0.781 nM were prepared by subsequent repetitions of doubling dilution, and measurements were carried out using HBS-EP buffer (10 mM HEPES pH 7.4, 0.15M NaCl, 3 mM EDTA, 0.005% Surfactant P20) (Biacore AB) as a running solution; the rate of flow was 10 μl/min. A sensorgram was thus obtained.
The dissociation constant (KD) of the peptide P15 obtained in Example 6 was determined using BIAcore upgrade (Biacore AB) and the analysis software BIA evaluation version 3.0 (Biacore AB).
The ligand was immobilized on the sensor chip CM5 research grade (Biacore AB) by the amine coupling method. Thus, the peptide mentioned above was dissolved in 20 mM carbonate buffer (pH 8.5) (500 μg/ml), and 100 μl of the solution was passed through the flow cell at a flow rate of 5 μl/min. The amount of the peptide immobilized was 130 RU.
Recombinant Human Insulin Receptor (28-956) (GT/TECHNE Corp.) was used as the analyte SIR. Eight concentration levels from 100 nM to 0.781 nM were prepared by subsequent repetitions of doubling dilution, which was started from diluting 100 nM solution, and measurements were carried out using HBS-EP buffer as a running solution; the rate of flow was 10 μl/min. A sensorgram was thus obtained.
The dissociation constant (KD) of the peptide P21 obtained in Example 7 was determined using BIAcore upgrade (Biacore AB) and the analysis software BIA evaluation version 3.0 (Biacore AB).
The ligand was immobilized on the sensor chip CM5 research grade (Biacore AB) by the amine coupling method. Thus, the peptide mentioned above was dissolved in 20 mM carbonate buffer (pH 8.5) (500 μg/ml), and 100 μl of the solution was passed through the flow cell at a flow rate of 5 μl/min. The amount of the peptide immobilized was 270 RU.

T1 sequence (P06213 28-956): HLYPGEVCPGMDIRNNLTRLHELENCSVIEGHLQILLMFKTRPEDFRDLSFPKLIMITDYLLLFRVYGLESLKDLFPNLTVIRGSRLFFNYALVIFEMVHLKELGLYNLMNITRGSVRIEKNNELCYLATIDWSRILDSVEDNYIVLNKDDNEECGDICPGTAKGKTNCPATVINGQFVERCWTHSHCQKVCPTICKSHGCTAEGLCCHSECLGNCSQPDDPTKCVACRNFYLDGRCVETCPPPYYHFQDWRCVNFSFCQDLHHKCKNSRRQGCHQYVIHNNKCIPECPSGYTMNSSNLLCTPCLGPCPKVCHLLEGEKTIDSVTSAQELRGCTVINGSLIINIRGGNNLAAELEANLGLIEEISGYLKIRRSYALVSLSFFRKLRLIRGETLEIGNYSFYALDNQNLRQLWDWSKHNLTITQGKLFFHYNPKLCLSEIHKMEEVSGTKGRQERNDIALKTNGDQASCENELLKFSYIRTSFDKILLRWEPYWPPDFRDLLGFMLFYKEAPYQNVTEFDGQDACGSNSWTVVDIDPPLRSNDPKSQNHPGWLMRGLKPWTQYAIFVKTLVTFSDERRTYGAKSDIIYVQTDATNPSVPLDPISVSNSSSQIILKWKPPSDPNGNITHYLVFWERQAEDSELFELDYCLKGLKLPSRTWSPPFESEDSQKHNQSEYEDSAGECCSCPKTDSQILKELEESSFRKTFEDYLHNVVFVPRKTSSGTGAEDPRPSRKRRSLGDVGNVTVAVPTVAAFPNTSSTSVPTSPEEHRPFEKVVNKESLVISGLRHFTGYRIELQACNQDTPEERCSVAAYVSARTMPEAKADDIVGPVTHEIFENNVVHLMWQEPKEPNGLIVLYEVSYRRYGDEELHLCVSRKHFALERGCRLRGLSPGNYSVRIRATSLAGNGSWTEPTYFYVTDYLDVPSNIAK

For the sequence CASDIVEGIYL [Peptide P15, CASDIVEGIYL], the “Binding rate constant (peptide-SIR)” value was 8.6E+02 and the koff turned out to be 0.02 s⁻¹.
With “CASDIVEGLYIVLAER [Peptide P14, CASDIVEGLYIVLAER]”, the “Binding rate constant (peptide-SIR)” value amounted to 9.7E+03 and the koff worked out at 0.015 s⁻¹.
Turning to “CQHILGSDIVEGIYL [Peptide P21, CQHILGSDIVEGIYL]”, the “Binding rate constant (peptide-SIR)” value was 5.1E+04 and the koff is 0.6 s⁻¹.
